Laboratory results published in patent publication US11377444B2, “Pyridopyrimidine compounds acting as mTORC 1/2 dual inhibitors” (MEDSHINE DISCOVERY INC., priority 2017, dated 2022).
Read-outs that look alike come from different tables or passages of the source. Each block holds one compound with its values, some of them ahead of it.

How the values were obtained:
[1] = target: T1, mTOR kinase (mTORC1 and mTORC2 kinase complex) (Homo sapiens, UniProt P42345); test: In vitro evaluation of mTOR kinase inhibitory activity (DiscoverX ligand-bead competition binding, qPCR readout)
T1 construct: purchased DiscoverX; host or cells: HEK-293
Experimental: Experimental Embodiment 1: In Vitro Evaluation of mTOR Kinase Inhibitory Activity This experiment was performed by DiscoverX. All materials and methods were obtained from DiscoverX.
Kinase activity analysis.
1. Labeled mTOR kinase was stably expressed in HEK-293 cells.
2. Streptavidin magnetic beads were treated with biotinylated small molecule ligands at room temperature for 30 minutes to produce affinity resin for kinase analysis;
3. Ligand beads were blocked with excess biotin and washed with buffer (1% bovine serum albumin, […]) to remove unbound ligand and non-specifically bound ligand;
4. The assembly of kinase and ligand and affinity beads, and the binding reaction between the compound and the three were performed in buffer (20% blocking buffer, 0.17x phosphate buffer, 0.05% Tween […]);
5. The test compounds were dissolved in dimethyl sulfoxide;
6. All test compounds were dissolved in DMSO, and then directly diluted […]
7. The solution was placed in a 384-well polypropylene plate, wherein the volume of each well was 0.02 mL;
8. The plate was shaked for an hour at room temperature;
9. The plate was washed with buffer (1× PBS, 0.05% Tween 20);
10. The affinity beads were resuspended in buffer (1× PBS, 0.05% Tween […] non-biotin affinity ligand) and incubated at room temperature for 30 minutes;
11. The kinase concentration in the eluate was deteced by qPCR.

[2] = tested on: HT-29 cell; test: Cell proliferation inhibitory activity (Cell-Titer-Glo), HT-29; assay type: cell-based; conditions: 3 days incubation
Text: (§1) Experimental Embodiment 2: Evaluation of Cell Proliferation Inhibitory Activity
(§2) Experiment objective: To detect cell proliferation inhibitory activity of the tested compounds.
(§3) Experimental principle: The luciferase in the Cell-Titer-Glo reagent produces oxyluciferin using luciferin, oxygen and ATP as reaction substrates, and releases energy in the form of light. Since the reaction of luciferase requires ATP, the total amount of light generated by the reaction is proportional to the total amount of ATP that reflects cell viability.
(§4) Cell lines: MCF-7 cell line […], HT-29 cell line (ATCC-HTB-38), OE21 (ECACC-96062201), NCI-N87 cell line (ATCC-CRL-5822)
(§5) Cell culture medium: (RPMI 1640 culture medium (Invitrogen #1868546; 10% serum Invitrogen #1804958; L-glutamine 1×, Invitrogen #1830863; dual antibiotic Hyclone #J170012))
(§6) Cell Titer-Glo® Luminescent Cell Viability Assay Kit (Promega #G7573)
(§7) The cells were inoculated in a 384- or 96-well plate with a density of 1000 cells per well and 25 μL per well according to the instructions of the cell inoculating plate. The edge wells were not inoculated with cells, and was supplemented with […].
(§8) (i) The mother solution of the compound was 10 mM, and diluted with DMSO to an initial concentration of 4 mM. The compound was added to the compound mother solution, 9 μL per well.
(§9) (ii) The compound was diluted with ECHO liquid-handling workstation. Each well of the cell plate was added with 125 nL compound. Each well of the cell wells in 2nd column and 23rd column was added with 125 nL DMSO, and each of the PBS wells in 1st column and 24th column was added with 125 nL DMSO.
(§10) (iii) Each well of the cell plate was supplemented with 25 μL culture medium, the final volume in each well of the cell plate was 50 μL, […] 3 times dilution, 10 concentrations, each concentration was duplicated in left and right wells, the final DMSO concentration was 0.25%.
(§11) 2.3. After addition of the compound, centrifugation was performed at 1000 rpm for 1 min, and the cell plate was placed in a 37° C., 5% CO2 incubator for 3 days.
(§12) The cell plate was taken out from the incubator and equilibrated at room temperature for 30 minutes. 25 μL Cell-Titer-Glo reagent was added to each well, shaken for one minute to mix thoroughly, centrifuged at 1000 rpm for 1 minute. After 10 minutes, the plate was read on PerkinElmer Envision with a […] reading time was set at 0.2 second.

[3] = Pharmacokinetic evaluation in plasma after IV and PO administration; assay type: in vivo; conditions: female Balb/c mice; for MRT inf: read-out: MRT0-inf; for MRT last: read-out: MRT0-last
Experimental: Experimental Embodiment 3: Pharmacokinetic Evaluation
The test compound was mixed with […] (Cremophor EL), vortexed and sonicated to prepare a 1 mg/mL near-clear solution, which was filtered with a microporous filter membrane for future use. Female Balb/c mice of 18 to 20 grams were selected and the solution of the test compound was administered intravenously at a dose of 1 or 2 mg/kg. The test compound was mixed with an aqueous solution of 1% Tween 80, 9% polyethylene glycol 400, and 90% water, vortexed and sonicated to prepare 1 mg/mL near-clear solution, which was filtered with a microporous filter membrane for future use.
Female Balb/c mice of 18 to 20 grams were selected, and the solution of the test compound was orally administered at a dose of 2 or 10 mg/kg. The whole blood was collected at a certain time, and prepared into plasma. The drug concentration was analyzed by LC-MS/MS, and the pharmacokinetic parameters were calculated using Phoenix WinNonlin software (Pharsight Corporation, USA).

[4] = tested on: OE21 cell; test: Cell proliferation inhibitory activity (Cell-Titer-Glo), OE21; assay type: cell-based; conditions: OE21, 72 h; 3 days incubation
Text: as §1, §2, §3, §4, §5, §6, §7, §8, §9, §10, §11, §12

[5] = tested on: N87 cell; test: Cell proliferation inhibitory activity (Cell-Titer-Glo), N87; assay type: cell-based; conditions: 72 h; 3 days incubation
Text: as §1, §2, §3, §4, §5, §6, §7, §8, §9, §10, §11, §12

[6] = tested on: MCF-7 cell; test: Cell proliferation inhibitory activity (Cell-Titer-Glo), MCF-7; assay type: cell-based; conditions: Homo sapiens, MCF7, 72 h; 3 days incubation
Text: as §1, §2, §3, §4, §5, §6, §7, §8, §9, §10, §11, §12

Kd [1]: 1 nM | IC50 ([2]; Homo sapiens, HT-29, 72 h): 1050 nM
SMILES: CNC(=O)c1cccc(-c2ccc3c(N4CCOCC4C)nc(N4CCOC5(CC(OC)C5)C4)nc3n2)c1 (single isomer, unassigned) [Embodiment 34-1]

Kd [1]: 0.73 nM | IC50 [2]: 833 nM
SMILES: CNC(=O)c1cccc(-c2ccc3c(N4CCOCC4C)nc(N4CCOC5(CC(OC)C5)C4)nc3n2)c1 (single isomer, unassigned) [Embodiment 34-2]

Kd [1]: 0.85 nM | AUCExtra ([3]; IV 2 mg/kg): 0.124% | AUMCExtra ([3]; IV 2 mg/kg): 1.27% | Tlast ([3]; IV 2 mg/kg): 12 h | AUCExtra ([3]; PO 10 mg/kg): 0.174% | AUMCExtra ([3]; PO 10 mg/kg): 1.83% | Tlast ([3]; PO 10 mg/kg): 24.0 h | AUC(0-inf) ([3]; mouse, IV 2 mg/kg): 7.42 µM·h | AUC(0-t) ([3]; mouse, IV 2 mg/kg): 7.41 µM·h | C0 ([3]; mouse, IV 2 mg/kg): 7.2 µM | clearance ([3]; mouse, IV 2 mg/kg): 9.45 mL/min/kg | half-life ([3]; mouse, IV 2 mg/kg): 1.65 h | MRT inf ([3]; mouse, IV 2 mg/kg): 1.38 h | MRT last ([3]; mouse, IV 2 mg/kg): 1.2 h | Vd ([3]; mouse, IV 2 mg/kg, read-out: Vdss): 0.793 L/kg | AUC(0-inf) ([3]; mouse, PO 10 mg/kg): 35 µM·h | AUC(0-t) ([3]; mouse, PO 10 mg/kg): 35 µM·h | Cmax ([3]; mouse, PO 10 mg/kg): 15.1 µM | Tmax ([3]; mouse, PO 10 mg/kg): 0.25 h | bioavailability ([3]; mouse, PO 10 mg/kg): 94.4% | half-life ([3]; mouse, PO 10 mg/kg): 3.33 h | MRT inf ([3]; mouse, PO 10 mg/kg): 2.74 h | MRT last ([3]; mouse, PO 10 mg/kg): 2.69 h | IC50 [6]: 155 nM | IC50 ([2]; Homo sapiens, HT-29, 72 h): 485 nM
SMILES: CNC(=O)c1cccc(-c2ccc3c(N4CCOC[C@@H]4C)nc(N4CCOC5(CC5)C4)nc3n2)c1 [Embodiment 1]
IC50 [4]: 313 nM | IC50 [5]: 61 nM

Kd [1]: 0.44 nM | IC50 ([2]; Homo sapiens, HT-29, 72 h): 442 nM
SMILES: CNC(=O)c1cccc(-c2ccc3c(N4CCOC[C@@H]4C)nc(N4CC5(CCC5)OC[C@@H]4C)nc3n2)c1 [Embodiment 30]
IC50 [4]: 158 nM
